Assay results reported in patent US20150182527A1, “COMPOSITIONS, DEVICES AND METHODS OF TREATING INFECTIONS” (COOK MEDICAL TECHNOLOGIES LLC, priority 2014, published 2015).

Key:
[1] = tested on: C. albicans #ATCC 10231; test: Checkerboard microdilution MIC of azole and quaternary ammonium salt combinations; format: cell-based, Candida albicans; details: for MIC: Candida albicans
From the text: (§1) Interactions between the selected azoles and quaternary ammonium salts (quats) were characterized via changes in minimum inhibitory concentration (MIC) using a checkerboard method in 96-well plates. This method is adapted from the microdilution method outlined in CLSI, M27-A3 (2008), —Reference Method for Broth Dilution Antifungal Susceptibility Testing of Yeasts; Approved Standard—3rd Edition.
(§2) Briefly, X and Y axes were established on the plates to serve as MIC controls for the compounds acting individually. Two-compound interactions were evaluated at the X-Y axis intersection of the two single-drug concentration axes.
(§3) Frozen concentrated stock compound solutions were used as the starting point in making the dilution series. […] One-quarter of the final well volume of the 4× stock was added to the appropriate wells. For wells with a second compound, one-quarter of the final well volume of the second compound was also added. An equivalent volume of culture media was added to wells in which only a single compound was tested.
(§4) Final well volume was either 100 μl or 200 μl depending on assay run. After addition of the 4× stocks and/or media, one-half of the final well volume of 5×10^3 CFU/mL yeast inoculum was added to each test well. Yeast inoculums were made from a 0.5 McFarland-matched culture that had been growing for 4-5 hours at 37° C. in trypticase soy broth (TSB). Each assay plate also included inoculum-only growth control wells (half the final well volume of inoculum plus the other half culture media) and culture media-only control wells. The inoculated plates were cultured aerobically in a humidified 36° C. room air incubator for 18 hours or 24 hours (±1 hour), depending on assay run, at which time growth was scored. The scored plates were then returned to the incubator for an additional 24 hours (±1 hour) of culturing and scored a second time (at 42 or 48 hours total culturing time).
(§5) Unless stated otherwise, yeast growth was scored using the subjective five tier numerical score (NS) scale established in CLSI M27-A3: 4=no reduction in growth relative to control, 3=slight reduction in growth (-25% reduction), 2=prominent decrease in growth (˜50% reduction), 1=slightly hazy growth (-75% reduction), 0 =no visible growth. Growth is scored relative to the on-plate inoculum control.
(§6) The checkerboard plate data was utilized to derive a fractional inhibitory concentration index (FICI) value that scores the interaction between compounds on a three category interaction scale: FICI <0.5 indicates synergy, FICI 0.5-4 indicates no interaction, and FICI >4 indicates antagonism. The FICI equation is: […]

[2] = tested on: C. glabrata # ATCC 2950; test: as above; format: cell-based, Candida glabrata; details: for MIC: Nakaseomyces glabratus, ATCC2950, fluconazole alone or its concentration in the combination
From the text: as §1, §2, §3, §4, §5, §6

[3] = TSB media, 48 hours post inoculation, benzalkonium-Cl alone or its concentration in the combination

| Compound | MIC ([1]; ATCC10231, 48 h, RPMI media, 48 hours post inoculation, fluconazole alone or its concentration in the combination) | MIC ([1]; ATCC10231, TSB media, 42 hours post inoculation, NS≦2 is efficacious, fluconazole alone or its concentration in the combination) | MIC ([1]; ATCC10231, TSB media, 48 hours post inoculation, fluconazole alone or its concentration in the combination with benzalkonium-Cl) | MIC ([2]; RPMI media, 48 hours post inoculation) | MIC ([2]; TSB media, 42 hours post inoculation, NS≦2 is efficacious) | Fluconazole MIC ([2]; TSB media, 48 hours post inoculation, fluconazole alone or its concentration in the combination with benzalkonium-Cl) | Benzalkonium-Cl MIC [1, 3] | Benzalkonium-Cl MIC [2, 3] |
| --- | --- | --- | --- | --- | --- | --- | --- | --- |
| OC(Cn1cncn1)(Cn1cncn1)c1ccc(F)cc1F [Fluconazole, fluconazole] | 128 µg/mL | 256 µg/mL | 64 µg/mL | 16 µg/mL | 16 µg/mL | 16 µg/mL | – | – |
| benzalkonium chloride [Benzalkonium-Cl] | – | – | – | – | – | – | 3.8 µg/mL | 1.9 µg/mL |
